Reference: patent US20030134303A1, “Adenine nucleotide-binding protein-directed probes, and methods of their synthesis and use” (ActivX Biosciences, Inc,, priority 2001, published 2003)

Columns and labels:
Assay type in all cases: binding
[1] = molecular target: T1, GST-fusion protein of the insulin receptor kinase domain (GST-InsRK) (Homo sapiens, UniProt P06213)
T1 construct: GST-fusion protein of the insulin receptor kinase domain (GST-InsRK)

[2] = molecular target: T2, epidermal growth factor receptor (EGFR) (Homo sapiens, UniProt P00533); test: EGF receptor tyrosine kinase labeling in A431 plasma membranes, MS identification of labeled peptide; conditions: probe 20 μM, 3 hours, solubilized A431 plasma membranes, anti-TAMRA capture, trypsin
T2 construct: Plasma membranes containing the epidermal growth factor receptor (EGFR) were prepared from the A431 human epidermoid cancer cell line; endogenous in cells; host or cells: A431 human epidermoid cancer cells (plasma membrane preparation, Triton X-100 solubilized)
Procedure: Plasma membranes containing the epidermal growth factor receptor (EGFR) were prepared from the A431 human epidermoid cancer cell line. Approximately 1×10^8 A431 cells were resuspended in 10 mls 20 mM HEPES, pH 7.5, 0.14M NaCl, 5 mM KCl, 0.1 mM EDTA, 0.1% glucose, and 0.035% sodium bicarbonate. The cells were lysed by Dounce homogenization, and the lysate was diluted into 80 mls of 20 mM sodium borate, pH 10.2, 0.1 mM EDTA. This mixture was placed on a rocker at 4° C. for 10 minutes, and the membranes from the mixture were isolated by centrifugation at 16,000 rpm for 30 minutes in a Beckman JA17 rotor. The plasma membranes were further purified by centrifugation over a 40%/30% sucrose cushion at 30000 rpm for 60 minutes in a Beckman MLS 50 swinging bucket rotor. The plasma membranes were collected at the aqueous—sucrose interface, and solubilized in buffer containing 20 mM HEPES, pH 7.5, 50 mM NaCl, 20 mM MgCl2, 0.05 mg/ml BSA, and 0.1% Triton-X-100.
Solubilized A431 plasma membranes (˜0.5 mg total protein) were incubated with (5)(20 μM) for 3 hours. […]
The proteins in this band were trypsinized, and the tryptic peptides were extracted. […] After elution from the beads the captured fragment was analyzed by mass spectroscopy (MS) to identify the peptide sequence: […]

[3] = molecular target: EGF receptor tyrosine kinase (Homo sapiens, UniProt P00533); test: Effect of inhibitors on EGF receptor tyrosine kinase labeling by ANBP (5) in A431 plasma membranes; conditions: inhibitor 50 μM, 5 minutes pretreatment, then AX0231 20 μM for 60 minutes; compared with 90% by the EGF inhibitor at 5 μM
Procedure: After 60 minutes, the reaction was quenched by the addition of gel sample buffer. The samples were electrophoresed on a 10% SDS-PAGE gel. The gel was then scanned on a FMBIO2 gel scanner, and the intensity of labeling of the EGFR was quantitated by ImageAnalysis.

T1 sequence (P06213 1023-1298 limits assumed): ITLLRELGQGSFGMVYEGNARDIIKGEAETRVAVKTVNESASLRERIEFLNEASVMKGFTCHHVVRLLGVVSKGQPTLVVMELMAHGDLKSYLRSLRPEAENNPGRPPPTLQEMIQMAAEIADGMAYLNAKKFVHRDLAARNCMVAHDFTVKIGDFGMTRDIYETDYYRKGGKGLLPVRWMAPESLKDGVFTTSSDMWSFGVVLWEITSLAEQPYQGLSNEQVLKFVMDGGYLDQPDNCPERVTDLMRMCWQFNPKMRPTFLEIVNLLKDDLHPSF

Compound: 5′-FSB-amido-2′(3′)-(2-TAMRA-amidoethylcarbamoyl)adenosine [Compound 5]
- labeling of GST-InsRK by probe [1]: labeled
- site of labeling in EGFR (probe-labeled tryptic peptide, K*) [2]: located within the active site of the protein

Compound: COC(=O)c1ccc(NCc2cc(O)ccc2O)cc1 [AG957]
- inhibition of probe labeling of EGFR [3]: significantly less inhibition
